Data reported in patent US10301297B2, “Substituted nicotinimide inhibitors of BTK and their preparation and use in the treatment of cancer, inflammation and autoimmune disease” (GUANGZHOU INNOCARE PHARMA TECH CO., LTD., priority 2013, dated 2019).

Assays:
[1] = molecular target: HCK (Homo sapiens (Human), UniProt P08631); test: kinase binding screen (affinity beads, qPCR readout) at 1000 nM; conditions: read-out: % Inhibition @ 1000 nM
[2] = molecular target: LYN (Homo sapiens (Human), UniProt P07948); test: as above; conditions: read-out: % Inhibition @ 1000 nM
LYN, sequence (P07948 whole entry): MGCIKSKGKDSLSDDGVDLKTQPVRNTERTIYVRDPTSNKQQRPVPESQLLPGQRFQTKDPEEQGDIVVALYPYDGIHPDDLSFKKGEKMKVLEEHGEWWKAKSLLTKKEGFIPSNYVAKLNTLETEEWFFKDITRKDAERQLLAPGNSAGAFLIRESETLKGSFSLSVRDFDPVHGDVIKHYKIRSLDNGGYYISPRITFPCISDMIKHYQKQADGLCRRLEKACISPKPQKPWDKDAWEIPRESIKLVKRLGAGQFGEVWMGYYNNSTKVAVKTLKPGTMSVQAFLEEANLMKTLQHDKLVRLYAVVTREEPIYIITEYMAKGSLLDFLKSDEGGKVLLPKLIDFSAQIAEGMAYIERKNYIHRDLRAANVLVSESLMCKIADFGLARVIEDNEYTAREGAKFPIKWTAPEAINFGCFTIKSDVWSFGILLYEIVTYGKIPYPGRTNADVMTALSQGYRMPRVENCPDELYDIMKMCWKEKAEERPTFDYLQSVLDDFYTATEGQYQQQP

[3] = molecular target: YES (Homo sapiens (Human), UniProt P07947); test: as above; conditions: read-out: % Inhibition @ 1000 nM
YES, sequence (P07947 whole entry): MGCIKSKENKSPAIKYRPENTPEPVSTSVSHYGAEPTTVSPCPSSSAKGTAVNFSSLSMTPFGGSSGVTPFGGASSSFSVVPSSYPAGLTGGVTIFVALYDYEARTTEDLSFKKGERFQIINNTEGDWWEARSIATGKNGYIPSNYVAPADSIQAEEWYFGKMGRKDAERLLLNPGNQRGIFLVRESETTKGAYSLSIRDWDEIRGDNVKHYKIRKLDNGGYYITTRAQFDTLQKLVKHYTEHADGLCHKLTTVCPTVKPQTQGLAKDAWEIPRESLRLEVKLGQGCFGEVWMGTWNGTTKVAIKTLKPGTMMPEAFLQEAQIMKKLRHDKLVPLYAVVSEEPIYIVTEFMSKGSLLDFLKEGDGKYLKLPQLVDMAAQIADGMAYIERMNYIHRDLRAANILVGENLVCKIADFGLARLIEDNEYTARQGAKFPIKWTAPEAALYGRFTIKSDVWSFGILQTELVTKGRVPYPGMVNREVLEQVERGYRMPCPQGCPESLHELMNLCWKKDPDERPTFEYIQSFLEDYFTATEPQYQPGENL

[4] = molecular target: LCK (Homo sapiens (Human), UniProt P06239); test: as above; conditions: read-out: % Inhibition @ 1000 nM
LCK, sequence (P06239 whole entry): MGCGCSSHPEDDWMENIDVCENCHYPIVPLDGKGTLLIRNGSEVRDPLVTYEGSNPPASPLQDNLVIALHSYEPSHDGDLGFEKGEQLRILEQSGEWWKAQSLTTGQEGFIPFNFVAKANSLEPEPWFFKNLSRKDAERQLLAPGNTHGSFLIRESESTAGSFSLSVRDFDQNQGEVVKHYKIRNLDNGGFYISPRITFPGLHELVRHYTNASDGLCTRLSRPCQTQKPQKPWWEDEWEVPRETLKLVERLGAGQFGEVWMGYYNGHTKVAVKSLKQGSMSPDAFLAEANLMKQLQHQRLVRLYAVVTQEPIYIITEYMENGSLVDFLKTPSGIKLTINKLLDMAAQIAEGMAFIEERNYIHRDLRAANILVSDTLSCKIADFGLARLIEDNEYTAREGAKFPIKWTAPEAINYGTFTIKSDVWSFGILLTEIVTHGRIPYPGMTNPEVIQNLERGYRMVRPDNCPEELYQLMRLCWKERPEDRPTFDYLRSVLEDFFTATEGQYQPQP

[5] = molecular target: BLK (Homo sapiens (Human), UniProt P51451); test: as above; conditions: read-out: % Inhibition @ 1000 nM
BLK, sequence (P51451 whole entry): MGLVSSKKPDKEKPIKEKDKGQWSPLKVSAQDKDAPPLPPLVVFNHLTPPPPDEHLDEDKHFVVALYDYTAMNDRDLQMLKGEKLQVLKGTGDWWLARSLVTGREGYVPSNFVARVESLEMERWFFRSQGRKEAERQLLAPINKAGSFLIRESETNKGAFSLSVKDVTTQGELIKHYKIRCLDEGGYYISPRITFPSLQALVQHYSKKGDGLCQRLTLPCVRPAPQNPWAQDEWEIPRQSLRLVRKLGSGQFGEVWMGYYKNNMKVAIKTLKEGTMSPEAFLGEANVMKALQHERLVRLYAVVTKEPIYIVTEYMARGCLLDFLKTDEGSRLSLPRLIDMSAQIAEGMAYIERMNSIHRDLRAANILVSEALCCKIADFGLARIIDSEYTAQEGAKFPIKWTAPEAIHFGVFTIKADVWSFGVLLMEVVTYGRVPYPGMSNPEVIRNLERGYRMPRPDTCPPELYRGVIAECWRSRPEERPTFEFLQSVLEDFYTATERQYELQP

[6] = molecular target: FYN (Homo sapiens (Human), UniProt P06241); test: as above; conditions: read-out: % Inhibition @ 1000 nM
FYN, sequence (P06241 whole entry): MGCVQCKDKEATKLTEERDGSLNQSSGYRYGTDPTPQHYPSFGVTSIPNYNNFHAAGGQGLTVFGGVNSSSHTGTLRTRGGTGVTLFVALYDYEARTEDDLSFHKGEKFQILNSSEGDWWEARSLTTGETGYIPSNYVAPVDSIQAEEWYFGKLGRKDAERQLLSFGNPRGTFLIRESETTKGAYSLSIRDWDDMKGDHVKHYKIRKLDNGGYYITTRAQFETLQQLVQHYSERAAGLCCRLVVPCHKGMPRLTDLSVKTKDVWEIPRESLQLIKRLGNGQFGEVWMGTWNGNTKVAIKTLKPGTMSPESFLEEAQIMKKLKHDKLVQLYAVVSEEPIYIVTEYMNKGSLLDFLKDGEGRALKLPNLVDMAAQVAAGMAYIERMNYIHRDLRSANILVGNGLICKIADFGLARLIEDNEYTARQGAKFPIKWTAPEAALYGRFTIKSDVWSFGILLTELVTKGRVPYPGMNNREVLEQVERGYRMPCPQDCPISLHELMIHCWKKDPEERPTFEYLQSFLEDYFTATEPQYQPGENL

[7] = molecular target: FGR (Homo sapiens (Human), UniProt P09769); test: as above; conditions: read-out: % Inhibition @ 1000 nM
FGR, sequence (P09769 whole entry): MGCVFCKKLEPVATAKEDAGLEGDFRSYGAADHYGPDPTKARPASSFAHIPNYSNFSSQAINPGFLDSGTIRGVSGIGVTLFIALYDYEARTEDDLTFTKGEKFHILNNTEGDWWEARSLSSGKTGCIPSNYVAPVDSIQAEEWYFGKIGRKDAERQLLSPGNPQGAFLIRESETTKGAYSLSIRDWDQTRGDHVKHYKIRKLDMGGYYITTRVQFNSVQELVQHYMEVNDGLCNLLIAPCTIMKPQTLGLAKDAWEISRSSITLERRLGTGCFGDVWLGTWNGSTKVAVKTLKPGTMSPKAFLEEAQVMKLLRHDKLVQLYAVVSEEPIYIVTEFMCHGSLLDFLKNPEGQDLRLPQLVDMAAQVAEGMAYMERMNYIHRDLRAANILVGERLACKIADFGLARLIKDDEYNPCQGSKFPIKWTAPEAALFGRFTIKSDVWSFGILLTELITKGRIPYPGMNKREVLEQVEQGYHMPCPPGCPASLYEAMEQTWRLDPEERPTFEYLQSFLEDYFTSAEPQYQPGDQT

[8] = molecular target: EGFR (Homo sapiens (Human), UniProt P00533); test: as above; conditions: read-out: % Inhibition @ 1000 nM
[9] = molecular target: T1, BTK (Homo sapiens (Human), UniProt Q06187); test: as above
T1 sequence (Q06187 whole entry): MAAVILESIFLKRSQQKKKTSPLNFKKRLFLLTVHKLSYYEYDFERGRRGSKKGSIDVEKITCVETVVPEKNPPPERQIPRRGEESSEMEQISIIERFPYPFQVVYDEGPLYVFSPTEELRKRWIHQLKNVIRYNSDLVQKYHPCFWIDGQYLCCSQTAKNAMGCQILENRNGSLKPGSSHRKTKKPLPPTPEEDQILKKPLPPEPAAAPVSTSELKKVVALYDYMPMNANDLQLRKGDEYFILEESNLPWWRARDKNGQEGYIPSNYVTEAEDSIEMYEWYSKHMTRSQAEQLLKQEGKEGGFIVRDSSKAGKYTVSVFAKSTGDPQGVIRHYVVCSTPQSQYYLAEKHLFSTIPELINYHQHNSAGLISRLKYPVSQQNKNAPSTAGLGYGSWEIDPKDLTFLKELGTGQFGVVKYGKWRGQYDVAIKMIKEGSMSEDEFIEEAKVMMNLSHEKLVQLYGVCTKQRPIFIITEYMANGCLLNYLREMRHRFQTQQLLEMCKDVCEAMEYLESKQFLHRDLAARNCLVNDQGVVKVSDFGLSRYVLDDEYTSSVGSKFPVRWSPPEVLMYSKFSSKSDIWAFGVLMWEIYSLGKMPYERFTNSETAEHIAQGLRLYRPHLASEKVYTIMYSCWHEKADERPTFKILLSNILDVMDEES

[10] = molecular target: T1, BTK; test: ADP-Glo Kinase biochemical assay, IC50 determination of BTK inhibitors; conditions: head-to-head assays
Experimental: Biological Properties: IC50 Determination of BTK Inhibitors in ADP-Glo Kinase Biochemical Assay
• Enzyme concentration: 8 ng/5 ul. • ATP concentration: 50 uM • Substrate (peptide) concentration: 0.2 mg/ml. • Reaction buffer composition: 40 mM Tris-HCl pH7.5, 10 mM MgCl2, 2 mM MnCl2, 0.1 mg/mL BSA, 0.05 mM DTT. • Test compound concentration: DMSO≤0.5%. Methods: Compound Dosage Gradient Solution Preparation: […]
1× and 2× assay buffer were made at first. BTK kinase was diluted with 1× assay buffer but substrate was diluted with 2× assay buffer. 1 ul of diluted compound was transferred into 384-well assay plate, and then 2.0 ul of enzyme solution was added, and spun at 2000 rpm for 1 min. This mixture was incubated at 24° C. for 30 mins. 2 ul of peptide substrate/ATP mixture was added into the assay plate to start the reaction. The mixture was mixed thoroughly and then the 384-well plate was spun and incubated at 24° C. for 60 mins. 5.0 ul of ADP-Glo Reagent was added to stop the kinase activity and deplete the ATP unconsumed, and the plate was mixed thoroughly and incubated at 24° C. for 40 min. Then, 10.0 ul of Kinase Detection reagent was added, and the plate was centrifuged and then kept at 24° C. for 30 min. The luminescence signal was read on Envision. […]
All data was analyzed with IDBS XLfit5 software (ID Business Solutions Ltd., UK).

[11] = molecular target: SRC (Homo sapiens (Human), UniProt P12931); test: kinase binding screen (affinity beads, qPCR readout) at 1000 nM
SRC, sequence (P12931 whole entry, looked up): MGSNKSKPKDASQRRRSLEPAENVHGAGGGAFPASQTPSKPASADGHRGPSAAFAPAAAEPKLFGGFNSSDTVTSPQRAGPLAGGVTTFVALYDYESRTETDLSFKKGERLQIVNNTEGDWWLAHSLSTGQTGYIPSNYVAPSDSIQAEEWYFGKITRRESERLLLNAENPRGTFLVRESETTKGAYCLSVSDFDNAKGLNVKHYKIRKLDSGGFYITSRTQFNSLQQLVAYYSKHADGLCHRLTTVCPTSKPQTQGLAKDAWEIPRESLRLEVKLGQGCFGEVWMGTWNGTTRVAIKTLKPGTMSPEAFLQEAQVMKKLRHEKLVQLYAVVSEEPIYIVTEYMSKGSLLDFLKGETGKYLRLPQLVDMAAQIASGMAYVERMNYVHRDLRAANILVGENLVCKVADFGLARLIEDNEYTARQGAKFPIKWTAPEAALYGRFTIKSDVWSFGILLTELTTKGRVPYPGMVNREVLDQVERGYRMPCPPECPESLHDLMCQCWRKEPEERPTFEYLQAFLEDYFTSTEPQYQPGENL

HCK, sequence (P08631 whole entry): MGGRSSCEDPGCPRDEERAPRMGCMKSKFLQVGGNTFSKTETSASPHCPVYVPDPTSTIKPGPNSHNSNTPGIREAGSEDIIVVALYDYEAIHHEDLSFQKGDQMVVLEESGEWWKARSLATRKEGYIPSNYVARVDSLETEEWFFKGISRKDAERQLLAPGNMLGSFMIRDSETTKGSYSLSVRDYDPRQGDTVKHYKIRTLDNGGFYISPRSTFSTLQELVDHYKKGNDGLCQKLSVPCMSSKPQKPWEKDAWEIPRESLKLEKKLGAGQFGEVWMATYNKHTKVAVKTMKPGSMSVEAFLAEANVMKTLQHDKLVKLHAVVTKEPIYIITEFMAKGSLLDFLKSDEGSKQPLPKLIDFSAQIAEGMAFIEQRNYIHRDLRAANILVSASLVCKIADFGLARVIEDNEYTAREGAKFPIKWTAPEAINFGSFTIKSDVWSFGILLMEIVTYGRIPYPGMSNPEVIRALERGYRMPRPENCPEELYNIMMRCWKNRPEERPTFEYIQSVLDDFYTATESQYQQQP

Row | Structure (SMILES) | inhibition at 1 µM [1] | inhibition at 1 µM [2] | inhibition at 1 µM [3] | inhibition at 1 µM [4] | inhibition at 1 µM [5] | inhibition at 1 µM [6] | inhibition at 1 µM [7] | inhibition at 1 µM [8] | inhibition at 1 µM [9] | IC50 ([10]; unit not printed in Table 2, read-out: BTK in vitro potency) | improvement in potency over Analogs 1 and 2 ([10]; in vitro BTK potency) | Fold Difference ([11]; BTK vs SRC) | inhibition at 1 µM ([11]; SRC, 1000 nM)
1 | C=CC(=O)N1CCC(c2ccc(C(N)=O)c(-c3ccc(Oc4ccccc4)cc3)n2)CC1 [Example 3, 6-(1-acryloylpiperidin-4-yl)-2-(4-phenoxyphenyl)nicotinamide] | 0% | 3% | 8% | 11% | 51% | 0% | 0% |  |  |  |  |  | 
2 | C=CC(=O)N1CCN(c2ccc(C(N)=O)c(-c3ccc(Oc4ccccc4)cc3)n2)CC1 [Example 5, 6-(4-acryloylpiperazin-1-yl)-2-(4-phenoxyphenyl)nicotinamide] | 21% | 7% | 6% | 0% | 46% | 5% | 0% | 23% | 99.7% | 4.7 nM | ~100 × | >100x | 33%
